Test results reported in patent US5319139A, “Naphthalene derivatives” (Eisai Co. Ltd., priority 1990, dated 1994).

How the values were obtained:
[1] = test system: PGE2 production from synovial cells of rat; experiment: Activity against the PGE2 production from cultured synovial cell of rat; assay type: cell-based, rat (Lewis male); conditions: 24 h, cultured rat synovial cells stimulated with neutrophil-originating factor (IL-1-like factor), PGE2 after one day by radioimmunoassay, read-out: Inhibitory activity against PGE2 production from synovial cells of rat IC50
Method: Activity against the PGE2 production from cultured synovial cell of rat
A synovial membrane taken out of the knee joint of a Lewis male rat was treated with collagenase-trypsin to separate off synovial cells. A test compound was added to a system prepared by the subculture of the synovial cells. The cells were stimulated with a neutrophil-originating factor (IL-1-like factor) to induce PGE2 production. After one day, the amount of PGE2 liberated into the culture medium was determined by radioimmunoassay (see R. Hashida et al., Prostaglandins, 27 (1984), 697).

[2] = test system: LTB4 production from human neutrophil; experiment: Activity against LTB4 production from human neutrophil; assay type: cell-based; conditions: human peripheral blood neutrophils, preincubated 37° C. 5 minutes, calcium ionophore A23187 2 μg/ml, 10 minutes, radioimmunoassay, read-out: Inhibitory activity against LTB4 production from human neutrophil IC50
Method: Activity against LTB4 production from human neutrophil
A test compound was added to a suspension of neutrophil separated from the human peripheral blood and the obtained mixture was preincubated at 37° C. for 5 minutes, followed by the addition of calcium ionophore A23187 in an amount of 2 μg/ml. After 10 minutes, the obtained mixture was cooled to stop the reaction. The amount of LTB4 contained in the supernatant of the reaction mixture was determined by radioimmunoassay (see H. Shirota et al., Arzneim Forsol Drug Res., 37 (1987) 930).

Structure (SMILES)	IC50 [1] [nM]	IC50 [2] [nM]
COc1cc(/C(=C/C2CCCCC2)C(=O)O)c2cccc(Cc3ccccc3)c2c1O [Example 12, (Z)-2-(5-benzyl-4-hydroxy-3-methoxy-1-naphthyl)-3-cyclohexyl-2-propenoic acid]	3540	10000
CCCC/C=C(\C(=O)O)c1cc(OC)c(O)c2c(Cc3ccccc3)cccc12 [Example 7, (Z)-2-(5-benzyl-4-hydroxy-3-methoxy-1-naphthyl)-2-heptenoic acid]	3100	> 10000
COc1cc(/C(=C/C(C)(C)C)C(=O)O)c2cccc(Cc3ccccc3)c2c1O [Example 13, (Z)-2-(5-benzyl-4-hydroxy-3-methoxy-1-naphthyl)-4,4-dimethyl-2-pentenoic acid]	3350	830
COc1cc(/C(=C/C(C)C)C(=O)O)c2cccc(Cc3ccccc3)c2c1O [Example 4, (Z)-2-(5-Benzyl-4-hydroxy-3-methoxy-1-naphthyl)-4-methyl-2-pentenoic acid]	2760	1680
CC/C=C(\C(=O)O)c1cc(OC)c(O)c2c(Cc3ccccc3)cccc12 [Example 2, (Z)-2-(5-Benzyl-4-hydroxy-3-methoxy-1-naphthyl)-2-pentenoic acid]	620	320
COc1cc(C(C(=O)O)=C(Cl)Cl)c2cccc(Cc3ccccc3)c2c1O [Example 55, 2-(5-Benzyl-4-hydroxy-3-methoxy-1-naphthyl)-3,3-dichloro-2-propenoic acid]	280	2350
COc1cc(C(C(=O)O)=C(C)C)c2cccc(Cc3ccccc3)c2c1O [Example 15, 2-(5-benzyl-4-hydroxy-3-methoxy-1-naphthyl)-3-methyl-2-butenoic acid]	1070	730
COc1cc(/C(=C/Cc2ccccc2)C(=O)O)c2cccc(Cc3ccccc3)c2c1O [Example 11, (Z)-2-(5-benzyl-4-hydroxy-3-methoxy-1-naphthyl)-4-phenyl-2-butenoic acid]	1880	1090
C/C=C(\C(=O)O)c1cc(OC)c(O)c2c(Cc3ccccc3)cccc12 [Example 1, (Z)-2-(5-Benzyl-4-hydroxy-3-methoxy-1-naphthyl)-2-butenoic acid]	420	510
COc1cc(/C(=C/c2ccccc2)C(=O)O)c2cccc(Cc3ccccc3)c2c1O [Example 10, (Z)-2-(5-benzyl-4-hydroxy-3-methoxy-1-naphthyl)-3-phenyl-2-propenoic acid]	2100	1860
C=CC/C=C(\C(=O)O)c1cc(OC)c(O)c2c(Cc3ccccc3)cccc12 [Example 5, (Z)-2-(5-Benzyl-4-hydroxy-3-methoxy-1-naphthyl)-2,5-hexadienoic acid]	1640	510
CCC/C=C(\C(=O)O)c1cc(OC)c(O)c2c(Cc3ccccc3)cccc12 [Example 3, (Z)-2-(5-Benzyl-4-hydroxy-3-methoxy-1-naphthyl)-2-hexenoic acid]	1450	520
C=C(C(=O)O)c1cc(OC)c(O)c2c(Cc3ccccc3)cccc12 [Example 14, 2-(5-benzyl-4-hydroxy-3-methoxy-1-naphthyl)-2-propenoic acid]	3230	720
C/C=C(/C(=O)O)c1cc(OC)c(O)c2c(Cc3ccccc3)cccc12 [Example 40, (E)-2-(5-Benzyl-4-hydroxy-3-methoxy-1-naphthyl)-2-butenoic acid]	2040	3160
